Test results published in patent US10703698B2, “Compounds which activate estrogen receptors and compositions and methods of using the same” (The Board of Trustees of the University of Illinois, priority 2016, dated 2020).
Entries after “also recorded” stand apart in the source; their conditions may differ.

How the values were obtained:
ovariectomized mice = experiment: carotid artery reendothelialization after perivascular electric injury; type: in vivo
Protocol: Carotid artery reendothelialization was studied following perivascular electric injury in mice by assessing Evans blue dye uptake 72 h after injury. Endothelial denudation and recovery after injury in this model have been confirmed by immunohistochemistry for von Willebrand Factor. […] Carotid artery denudation was performed 21d later. In select studies additional treatments included subcutaneous injections of vehicle or ICI 182,780 (360 μg/mouse) administered 3d prior to carotid injury and on the day of injury. At the end of the study, uteri were also harvested and weighed.

eNOS = eNOS activation in primary endothelial cells (14C-L-arginine to 14C-L-citrulline); type: cell-based, bovine; details: 1 μM ICI 182,780; listed as ICI
LRRC54 gene = experiment: LRRC54 (non-genomic gene) mRNA expression, qPCR; details: MCF-7 cells, 1 μM ICI pretreatment, 1 μM PaPE-1
MCF-7 cells [1] = experiment: oleic acid (OA)-induced MCF-7 cell proliferation, WST1; details: for OA-induced MCF-7 cell proliferation with added agent: 100 nM OA, agent 1 μM, 6 days
MCF-7 cells [2] = experiment: MCF-7 proliferation in serum from obese individuals or standard culture; details: 1 μM, six days
ERα-SRC3 interaction = experiment: tr-FRET assay of SRC3 coactivator binding to ERα; type: biochemical; details: 10 nM E2-ERα complex
Text: Using a time-resolved Forster resonance energy transfer (tr-FRET) assay, the binding of the steroid receptor coactivator 3 (SRC3) to ERu was monitored.

PgR gene = experiment: PgR (genomic gene) mRNA expression, qPCR; details: MCF-7 cells; 1 μM PaPE or 10 nM E2 for 4 h where stated; versus vehicle or E2
LRRC54 gene vs PgR gene = experiment: preferential activation of non-genomic (LRRC54) over genomic (PgR) gene; details: relative to activation by E2
MCF-7 cells [3] = experiment: RNA-Seq of MCF-7 cells treated with OA with and without PaPE-1; type: cell-based, human; details: 100 nM OA, 24 h
Protocol: FIG. 38. Identification of genes induced by OA and PaPE-1's effect on the gene regulation. (A) RNA-Seq analysis of gene expression changes induced by OA and OA+PaPE1. Heat map of the genes with significant changed expression. MCF-7 cells were treated with Veh or 100 nM OA with and without 1 μM PaPE-1 for 24 h. RNA was isolated and RNA-Seq was performed using 2 samples from each treatment group. Differentially regulated genes were determined with p<0.05 and expression fold change >2. (B) Clusters from A. regulated by OA and reversed by PaPE-1. The average gene expression level of the cluster1 (C1) and 2 (C2) identified as PaPE-1 regulated high-fat genes. In C1, there are 425 genes whose expression were found stimulated in OA but not in the OA+PaPE-1 treatment. In C2, there are 646 genes whose expression were found suppressed in the OA but restored by OA+PaPE-1 treatment. (C) Venn diagram analysis. […] (D) Examples of OA-regulated genes. Some of the top functions of the involved genes are presented.

[4] = tested on: ERα recruitment to chromatin; experiment: ERα ChIP-Seq of MCF-7 cells treated with OA with or without PaPE-1; type: cell-based, human; details: 100 nM OA, 45 minutes
Protocol: FIG. 39. ERα chromatin binding sites induced by OA and the effect of PaPE-1 in reversing these changes in the ERα cistrome. (A) Recruitment of ERα to chromatin in the presence of PaPE-1, OA and OA+PaPE-1. MCF-7 cells were treated with Veh and 100 nM OA with or without 1 μM PaPE-1 for 45 minutes. ERα-DNA complexes were pulled down using ERα antibodies. Three biological replicates were pooled and sequenced. Clustering of ERα binding sites in treatments of Veh (0.1% EtOH), PaPE-1 (1 μM), OA (100 nM), and OA (100 nM)+PaPE-1 (1 t.M) was done using seqMINER software. (B) Validation of effect of OA and PaPE-1 on the ERα binding at regulatory region of PgR, CISH and SREBP1C using ChIP-qPCR. MCF-7 cells were treated with Veh and 100 nM OA with or without 1 μM PaPE-1 for 45 minutes. ERα-DNA complexes were pulled down using ERα antibodies. Recruitment of ERα to PgR (chr11:100,904,522-100,905,458), CISH (chr3:50,642,336-50,643,191) and SREBP1 (chr17:17,743,329-17,743,912) sites were quantified by Q-PCR. The experiment was repeated 3 times with at least duplicates each time. Mean±SEM is plotted. […] Mean±SEM is plotted. (C) Binding sites whose ERα occupation increased upon OA treatment (cluster marked by * in B). The ERα binding sites were separated into four clusters of characteristic patterns: C1, C2, C3 and C4. […]

mTOR pathway = experiment: OA-induced mTOR pathway activation in MCF-7 cells, western blot; details: 100 nM OA, time course
MCF-7 cells [5] = experiment: RNA-Seq transcriptional profiling of MCF-7 cells; type: cell-based, human; details: for number of genes regulated: 10 nM E2 or 1 μM PaPE-1
Protocol: For gene expression analysis, total RNA was extracted from 3 biological replicates for each ligand treatment using Trizol reagent and further cleaned using the RNAeasy kit (QIAGEN). […] Once the sample quality and replicate reproducibility were verified, 2 samples from each group were subjected to sequencing. RNA at a concentration of 100 ng/μL in nuclease-free water was used for library construction. cDNA libraries were prepared with the mRNA-TruSeq Kit (Illumina, Inc.). Briefly, the poly-A containing mRNA was purified from total RNA, RNA was fragmented, double-stranded cDNA was generated from fragmented RNA, and adapters were ligated to the ends.
The paired-end read data from the HiSeq 2000 were processed and analyzed through a series of steps. Base calling and de-multiplexing of samples within each lane were done with Casava 1.8.2. FASTQ files were trimmed using FASTQ Trimmer (version 1.0.0). TopHat2 (version 0.5) was employed to map paired RNA-Seq reads to version hg19 of the Homo sapiens reference genome in the UCSC genome browser in conjunction with the RefSeq genome reference annotation. Gene expression values (raw read counts) from BAM files were calculated using StrandNGS (version 2.1) Quantification tool. Partial reads were considered and option of detecting novel genes and exons was selected. Default parameters for finding novel exons and genes were specified. DESeq normalization algorithm using default values was selected. Differentially expressed genes were then determined by fold-change and p-value with Benjamini and Hochberg multiple test correction for each gene for each treatment relative to the vehicle control. Genes with fold-change >2 and p-value <0.05 were considered as statistically significant, differentially expressed. All RNA-Seq datasets have been deposited with the NCBI under GEO accession number GSE73663.

[6] = tested on: ovariectomized C57BL/6 mice; experiment: ovariectomized mice: uterus, thymus and mammary gland effects
[7] = tested on: ovariectomized C57BL/6 mice; experiment: stroke model, transient middle cerebral artery occlusion (tMCAo)

C[C@]12CC[C@@H]3c4ccc(O)cc4C[C@@H](CCCCCCCCC[S+]([O-])CCCC(F)(F)C(F)(F)F)[C@H]3[C@@H]1CC[C@@H]2O (stereo partly shown) [ICI 182,780, Fulvestrant]
endothelial repair responses elicited by E2 and PaPE-1 with antiestrogen (ovariectomized mice; ICI 182,780 360 μg/mouse): fully prevented
uterine stimulation by E2 with antiestrogen (ovariectomized mice; mouse, in vivo): blocked uterine stimulation by E2
eNOS / NOS stimulation by E2 and PaPEs with antiestrogen (eNOS): fully attenuated; also recorded: fully blocked
activation of LRRC54 gene expression by PaPE-1 in presence of antiestrogen (LRRC54 gene): blocked
OA-induced MCF-7 cell proliferation with added agent (MCF-7 cells [1]): blocked OA-induced cell proliferation; also recorded: suppressed
inhibition of MCF-7 proliferation in normal cell culture conditions (MCF-7 cells [2]): better agents

CC/C(=C(\c1ccc(O)cc1)c1ccc(OCCN(C)C)cc1)c1ccccc1 [OH-Tam, trans-hydroxytamoxifen, reference compound]
reversal of the E2-promoted ER-SRC3 interaction (ERα-SRC3 interaction): reversed the ER-SRC3 interaction promoted by E2
PgR (genomic gene) mRNA expression, in words (PgR gene): slight stimulation of the PgR gene
OA-induced MCF-7 cell proliferation with added agent (MCF-7 cells [1]; listed as 4-OH-Tamoxifen): blocked OA-induced cell proliferation; also recorded: suppressed
preference for activation of the non-genomic pathway (LRRC54 over PgR), in words (LRRC54 gene vs PgR gene): Neither Raloxifene (RAL) nor hydroxytamoxifen (TOT) show selective activation of the non-genomic gene LRRC54
inhibition of MCF-7 proliferation in normal cell culture conditions (MCF-7 cells [2]): better agents

CCCCCCCC/C=C\CCCCCCCC(=O)O [OA, oleic acid]
genes downregulated by OA (MCF-7 cells [3]): about 500 genes
genes upregulated by OA (MCF-7 cells [3]): about 350 genes
ERα recruitment to chromatin upon OA [4]: recruited to novel chromatin sites upon OA treatment
MCF-7 cell proliferation with free fatty acid (MCF-7 cells [1]; 1 and 100 nM): very efficient in increasing cell proliferation in MCF-7 cells
mTOR pathway activation by OA (mTOR pathway): robust activation of mTOR pathway downstream targets Akt, S6 and 4EBP1

C[C@]12CC[C@@H]3c4ccc(O)cc4CC[C@H]3[C@@H]1CC[C@@H]2O [Compound E2, estradiol, reference compound]
regulated genes blocked by MAPK inhibitor AZD6244 (MCF-7 cells [5]; 1 μM AZD6244, 4 h): 23%
regulated genes blocked by mTOR pathway inhibitor PP242 (MCF-7 cells [5]; 1 μM PP242, 4 h): 40%
number of genes regulated (MCF-7 cells [5]; 4 h): ~1500 genes
number of genes regulated (MCF-7 cells [5]; 24 h): about 3000 genes
uterine weight in reendothelialization study (ovariectomized mice; mouse, in vivo): greatly elevated; also recorded: increases uterine weight
mammary gland ductal morphology ([6]; 3 weeks): elicited marked ductal growth
uterine weight ([6]; E2 5 μg/day, PaPE up to 300 μg/day): very effective in increasing growth of the uterus; also recorded: markedly increased
reduction of leukocytes infiltrated in the brain ([7]; 3 days post-stroke): 63%
uterine wet weight ([7]; compared with vehicle): caused an increase in uterine wet weight
